How the values of this data set were obtained: The free base Example 35 (10 mg) was weighed into glass vials and water was added in 100 μL portions up to 1 mL then 0.5 mL portions thereafter. Solubility was assessed visually following a brief period of equilibration.

Where only a bound is given, the exact number is not on record here.

The compound `C[C@@H](c1ccc2scnc2c1)N1CCN(c2ncc([S@@](C)(=N)=O)cn2)CC1` (single isomer, unassigned) [Example 35] had a visual aqueous solubility of under 1250 µg/mL.
